According to PMC5349910, “Discovery of BPR1K871, a quinazoline based, multi-kinase inhibitor for the treatment of AML and solid tumors: Rational design, synthesis, in vitro and in vivo evaluation” (Oncotarget, 2016):
pEC50, pIC50: −log10 of the molar value. In brackets after ≈: the same amount, converted by molar mass. Several values for one entry are separate records, joined by “and”; a condition that tells them apart may be missing. Equal entries are not always repeated. Where two headings read alike, the source gives them in different places.

How the values were obtained:
FLT3 [1] = molecular target: T1, FLT3 (Homo sapiens, UniProt P36888); design: method as in PMID 20550212, PMID 23172777, PMID 24665000; conditions: previously reported leads 1, 2, 3; cited from earlier work
T1 construct: FLT3 kinase catalytic domain (residues Tyr567-Ser993); made in house; host or cells: Sf9 insect cells (baculovirus, pBac-PAK8-GST-FLT3-KD)
T1 sequence (P36888 567-993): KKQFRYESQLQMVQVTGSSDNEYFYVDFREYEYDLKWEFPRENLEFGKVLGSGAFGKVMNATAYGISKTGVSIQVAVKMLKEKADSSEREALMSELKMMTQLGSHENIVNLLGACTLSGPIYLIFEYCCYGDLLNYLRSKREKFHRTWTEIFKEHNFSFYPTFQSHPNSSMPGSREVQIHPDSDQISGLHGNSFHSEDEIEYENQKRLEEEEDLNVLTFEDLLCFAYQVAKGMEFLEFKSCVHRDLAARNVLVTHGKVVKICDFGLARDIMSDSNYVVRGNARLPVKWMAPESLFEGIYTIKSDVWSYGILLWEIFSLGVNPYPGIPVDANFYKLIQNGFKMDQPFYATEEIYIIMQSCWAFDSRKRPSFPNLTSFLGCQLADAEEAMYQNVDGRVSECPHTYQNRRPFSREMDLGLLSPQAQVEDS

[2] = tested on: Detroit 551 (human normal skin fibroblast cells); assay: MTS cell viability assay, Detroit-551; type: cell-based; conditions: 72 h
Description: The MTS cell viability assay was conducted as previously described. The MOLM-13 human leukemia cell line was obtained from the German Resource Centre for Biological Material (DSMZ, Braunschweig, Germany); the MV4-11 cell line was purchased from the American Type Culture Collection (ATCC, Manassas, VA, USA). Both the leukemia cell lines were maintained in RPMI 1640 medium supplemented with 10% fetal bovine serum (FBS), 10 UmL^-1 penicillin, and […] streptomycin at 37°C and 5% CO2. The Detroit-551, COLO205, and Mia-PaCa2 cell lines were purchased from the American Type Culture Collection (ATCC, Manassas, VA, USA) and cultured according to instructions of ATCC. To determine cell viability after drug treatment, assay for MOLM-13 and MV4-11 was performed by seeding 10000 cells per well in a 96-well culture plate. Detroit-551, COLO205, and Mia-PaCa2 were seeded at density of 2500, 4000, and 3750 cells per well, respectively. After 16 h, cells were then treated with vehicle or various concentrations of compound in medium for 72 h. Viable cells were quantified using the MTS method (Promega, Madison, WI, USA) according to the manufacturer's recommended protocol. Results were determined by measuring the absorbance at 490 nm using a plate reader (Victor2; PerkinElmer, Shelton, CT, USA).

AURKB = AURKB (Homo sapiens, UniProt Q96GD4); assay: AURKB inhibition assay (Kinase-Glo); type: biochemical; design: full length His-tagged Aurora-B (residues M1∼A344); His; purchased Invitrogen PV6130; conditions: 500 nM; duplicate determination
Sequence of AURKB (Q96GD4 whole entry): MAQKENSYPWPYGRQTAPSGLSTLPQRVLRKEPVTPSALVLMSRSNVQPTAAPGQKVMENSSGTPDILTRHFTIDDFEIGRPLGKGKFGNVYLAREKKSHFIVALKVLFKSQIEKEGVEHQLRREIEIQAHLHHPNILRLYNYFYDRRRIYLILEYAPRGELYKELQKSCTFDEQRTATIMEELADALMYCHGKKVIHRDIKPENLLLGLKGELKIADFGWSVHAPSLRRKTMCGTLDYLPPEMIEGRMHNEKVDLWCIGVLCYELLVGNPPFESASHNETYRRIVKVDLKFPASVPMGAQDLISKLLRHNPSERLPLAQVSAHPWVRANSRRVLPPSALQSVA
Description: AURKB assay was conducted as previously described. Briefly, the recombinant full length His-tagged Aurora-B (residues M1∼A344) was purchased from Invitrogen (Catalog number: PV6130). The kinase assay was carried out in 96-well plates with the tested compound in reaction solution (50 mM Tris-HCl pH 7.4, 10 mM NaCl, 10 mM MgCl2, 0.01% BSA, 5 mM ATP, 1 mM DTT and 15 mM tetra(LRRASLG) peptide, and 40 ng recombinant Aurora-B) at 30°C for 180 min.
(§1) Following incubation, 50 μL Kinase-Glo Plus Reagent (Promega, Madison, WI, USA) was added, and the mixture was incubated at 25°C for 20 min. A 70 μL aliquot of each reaction mixture was transferred to a black microliter plate, and luminescence was measured on a Wallac Vector 1420 multilabel counter (PerkinElmer, Shelton, CT, USA).

Aqueous solubility = type: physicochemical; conditions: in water
MOLM-13 cells = assay: MTS cell viability assay, MOLM-13; type: cell-based, human; conditions: MTS, 72 h, AML-FLT3-ITD (heterozygous), supplement values ± SEM, read-out: MOLM-13 EC50
Description: (§2) The MTS cell viability assay was conducted as previously described. The MOLM-13 human leukemia cell line was obtained from the German Resource Centre for Biological Material (DSMZ, Braunschweig, Germany); the MV4-11 cell line was purchased from the American Type Culture Collection (ATCC, Manassas, VA, USA). […] To determine cell viability after drug treatment, assay for MOLM-13 and MV4-11 was performed by seeding 10000 cells per well in a 96-well culture plate. […] After 16 h, cells were then treated with vehicle or various concentrations of compound in medium for 72 h. Viable cells were quantified using the MTS method (Promega, Madison, WI, USA) according to the manufacturer's recommended protocol. Results were determined by measuring the absorbance at 490 nm using a plate reader (Victor2; PerkinElmer, Shelton, CT, USA).

MV4-11 cells = assay: MTS cell viability assay, MV4-11; type: cell-based, human; conditions: MTS, 72 h, AML-FLT3-ITD (homozygous), supplement values ± SEM, read-out: MV4-11 EC50
Description: as §2

FLT3 [3] = molecular target: T1, FLT3; assay: FLT3 kinase inhibition assay (Kinase-Glo); type: biochemical; conditions: for pIC50: mean of at least two independent experiments, within ±15%; for selectivity for FLT3 over AURKA: from enzyme IC50
Description: The FLT3 assay was conducted as previously described. Briefly, GST-FLT3-KD^WT containing the FLT3 kinase catalytic domain (residues Tyr567-Ser993) was expressed in Sf9 insect cells transfected with the baculovirus containing pBac-PAK8-GST-FLT3-KD plasmid.
as §1

AURKA = molecular target: T2, AURKA (Homo sapiens, UniProt O14965); assay: AURKA inhibition assay (Kinase-Glo); type: biochemical; conditions: for pIC50: mean of at least two independent experiments, within ±15%; for selectivity for AURKA over FLT3: from enzyme IC50
T2 construct: recombinant GST-AURKA (residues Ser123-Ser401) containing the kinase domain; GST (N); made in house; host or cells: Sf9 insect cells
T2 sequence (O14965 123-401): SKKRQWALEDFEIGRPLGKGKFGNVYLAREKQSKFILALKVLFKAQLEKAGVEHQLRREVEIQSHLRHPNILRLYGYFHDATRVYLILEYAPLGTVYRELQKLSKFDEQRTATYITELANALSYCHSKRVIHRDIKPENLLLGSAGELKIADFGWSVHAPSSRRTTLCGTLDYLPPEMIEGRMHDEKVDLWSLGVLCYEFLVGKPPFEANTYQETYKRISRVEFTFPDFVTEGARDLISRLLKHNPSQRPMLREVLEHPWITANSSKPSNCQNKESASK
Description: AURKA assay was conducted as previously described. Briefly, the recombinant GST-AURKA (residues Ser123-Ser401) containing the kinase domain was expressed in Sf9 insect cells.
Following incubation, 50 μL Kinase-Glo Plus Reagent (Promega, Madison, WI, USA) was added, and the mixture was incubated at 25°C for 20 min.

HCC827 cells = assay: Anti-proliferative activity, HCC827; type: cell-based; conditions: Homo sapiens, HCC827; NSCLC-EGFR L858R; supplement values ± SEM; read-out: HCC827 EC50
CL-97 cells = assay: Anti-proliferative activity, CL-97; type: cell-based, human; conditions: CL97; Human Lung Cancer; supplement values ± SEM; read-out: CL-97 EC50
H1975 cells = assay: Anti-proliferative activity, H1975; type: cell-based; conditions: Homo sapiens, NCI-H1975; NSCLC-EGFR LR/TM; supplement values ± SEM; read-out: H1975 EC50
RS4-11 cells = assay: Anti-proliferative activity, RS4-11; type: cell-based; conditions: Homo sapiens, RS4-11; ALL-wt-FLT3 (homozygous); supplement values ± SEM; read-out: RS4-11 EC50
H2228 cells = assay: Anti-proliferative activity, H2228; type: cell-based; conditions: Homo sapiens, NCI-H2228; NSCLC-ALK; supplement values ± SEM; read-out: H2228 EC50
HCT-116 cells = assay: Anti-proliferative activity, HCT-116; type: cell-based, human; conditions: HCT-116; Human Colon Cancer; supplement values ± SEM; read-out: HCT-116 EC50
Mia-PaCa2 cells = assay: Anti-proliferative activity, Mia-PaCa2; type: cell-based, human; conditions: Homo sapiens, MIA PaCa-2, Human Pancreatic Cancer; supplement values ± SEM

| SMILES | inhibition at 0.5 µM (AURKB) [%] | pEC50 (MOLM-13 cells; Homo sapiens, MOLM-13, 72 h) | pEC50 (MV4-11 cells; Homo sapiens, MV4-11, 72 h) | pIC50 (FLT3 [3]) | pIC50 (AURKA) | pEC50 [2] | also measured |
| --- | --- | --- | --- | --- | --- | --- | --- |
| O=C(Nc1ccccc1)Nc1ccc(CCNc2ncnc3oc(-c4ccccc4)c(-c4ccccc4)c23)cc1 [Compound 1] | – | – | – | – | – | – | pIC50 (FLT3 [1]): < 5.00 |
| COc1cc2ncnc(NCCc3ccc(NC(=O)Nc4ccccc4)cc3)c2cc1OC [Compound 2] | – | – | – | – | – | – | pIC50 (FLT3 [1]): < 5.00 |
| COc1cc2ncnc(NCCc3cnc(NC(=O)Nc4cccc(Cl)c4)s3)c2cc1OC [Compound 4] | 100 | ~7.40 | ~7.40 | 6.90 | 8.30 and 8.31 | 5.04 | solubility (Aqueous solubility): 0.452 µg/mL (≈ 0.932 µM); pEC50 (MOLM-13 cells): 7.70; pEC50 (MV4-11 cells): 7.37 |
| O=C(Nc1cccc(Cl)c1)Nc1ncc(CCNc2ncnc3ccccc23)s1 [Compound 5] | 92 | 7.16 | 7.19 | 5.85 | 7.82 | 5.18 | selectivity for AURKA over FLT3 (AURKA): 100 fold |
| COCCOc1cc2ncnc(NCCc3cnc(NC(=O)Nc4cccc(Cl)c4)s3)c2cc1OCCOC [Compound 6] | 70.4 | 7.05 | 6.99 | 7.01 | 8.22 | 5.46 | – |
| COCCOc1ccc2ncnc(NCCc3cnc(NC(=O)Nc4cccc(Cl)c4)s3)c2c1 [Compound 7] | 42 | 6.39 | 6.47 | 5.89 | 8.00 | 5.10 | selectivity for AURKA over FLT3 (AURKA): 100 fold |
| COCCOc1ccc2c(NCCc3cnc(NC(=O)Nc4cccc(Cl)c4)s3)ncnc2c1 [Compound 8] | 85.9 | 8.10 | 8.02 | 6.99 | 7.96 | 5.54 | solubility (Aqueous solubility): 0.107 µg/mL (≈ 0.214 µM) |
| CO[C@@H]1[C@H](N(C)C(=O)c2ccccc2)C[C@H]2O[C@]1(C)n1c3ccccc3c3c4c(c5c6ccccc6n2c5c31)C(=O)NC4 [PKC412] | – | – | – | – | – | – | pEC50 (HCC827 cells): 6.16 |
| CNC(=O)c1cc(Oc2ccc(NC(=O)Nc3ccc(Cl)c(C(F)(F)F)c3)cc2)ccn1 [Sorafenib] | – | – | – | – | – | – | pEC50 (CL-97 cells): 5.15; pEC50 (H1975 cells): 5.15; pEC50 (RS4-11 cells): 5.03; pEC50 (H2228 cells): 5.10; pEC50 (HCT-116 cells): 5.06; pEC50 (Mia-PaCa2 cells): 5.11 |

Now from value to compound, other results behind:

| inhibition at 0.5 µM (AURKB) [%] | pEC50 (MOLM-13 cells; Homo sapiens, MOLM-13, 72 h) | pEC50 (MV4-11 cells; Homo sapiens, MV4-11, 72 h) | pIC50 (FLT3 [3]) | pIC50 (AURKA) | SMILES | pEC50 [2] | also measured |
| --- | --- | --- | --- | --- | --- | --- | --- |
| 90.1 | 7.40 | 7.24 | 7.24 | 7.77 | CN(C)CCOc1ccc2c(NCCc3cnc(NC(=O)Nc4cccc(Cl)c4)s3)ncnc2c1 [Compound 9] | 5.47 | – |
| 75.8 | 8.10 | 7.67 | 7.03 | – | CN(C)CCCOc1ccc2c(NCCc3cnc(NC(=O)Nc4ccccc4)s3)ncnc2c1 [Compound 11] | 4.96 | – |
| 90 | 7.91 | 7.96 | 7.01 | 7.72 | COc1cccc(NC(=O)Nc2ncc(CCNc3ncnc4cc(OCCCN(C)C)ccc34)s2)c1 [Compound 12] | 5.01 | – |
| 48.6 | 8.17 | 8.68 | 7.80 | 6.33 | COc1ccc(Cl)cc1NC(=O)Nc1ncc(CCNc2ncnc3cc(OCCCN(C)C)ccc23)s1 [Compound 13] | 5.28 | selectivity for FLT3 over AURKA (FLT3 [3]): 30 fold |
| 63 | 7.90 | 8.48 | 7.69 | 6.88 | Cc1ccc(Cl)cc1NC(=O)Nc1ncc(CCNc2ncnc3cc(OCCCN(C)C)ccc23)s1 [Compound 14] | 5.42 | selectivity for FLT3 over AURKA (FLT3 [3]): ~8 fold |
